Source: patent US12024716B2, “Compositions and methods of expansion of T cell populations” (THE BOARD OF TRUSTEES OF THE LELAND STANFORD JUNIOR …, priority 2018, dated 2024)
Read-outs that look alike come from different tables or passages of the source.

System: human naïve CFSE+ CD8+ T cells
Conditions: for CFSE^+ CD8^+ T cells (%)^*: live and non-apoptotic gates not applied
From the text: Peripheral blood mononuclear cells (PBMCs) were isolated from Trima Accel leukocyte reduction system (LRS) chambers (Terumo BCT, Lakewood, CO) of de-identified healthy blood donors (Stanford Blood Center, Palo Alto, CA) using Ficoll-Paque Plus (GE Healthcare, Chicago, IL, USA) density gradient centrifugation according to manufacturer's instructions. For long-term storage, PBMCs were resuspended in FBS with 10% DMSO and stored in liquid nitrogen at density 1-5×10^7 cells/mL. Cryopreserved PBMCs were thawed into cell culture medium (CCM; RPMI 1640 containing 10% FBS, 1× L-glutamine, and 1× penicillin/streptomycin; Thermo Fisher Scientific Waltham, MA, USA) supplemented with 25 U/mL benzonase (SIGMA-ALDRICH®, St. Louis, MO, USA). Cells were then pelleted for 5 minutes at 250×g, resuspended in 10 mL CCM, rested at 37° C., 5% CO2 for 60 minutes, filtered through a 40 μm strainer, and counted. Where indicated, naïve T cells were enriched using Naïve Pan T Cell Isolation Kit (Miltenyi Biotec #130-097-095, Bergisch Gladbach, Germany) according to manufacturer's instructions.
Unless otherwise noted, carboxyfluorescein succinimidyl ester (CFSE) labeling was performed as described by Quah and Parish16, 17. Briefly, 50 μg carboxyfluorescein diacetate succinimidyl ester (CFDA-SE) was reconstituted in 18 μL DMSO (CellTrace CFSE Cell Proliferation Kit, Thermo Fisher Scientific #C34554) to create a 5 mM stock immediately prior to labeling. Cells were resuspended in 1 mL warm CCM and transferred into a new 15 mL Falcon tube lying horizontally. A drop containing 110 μL warm PBS was placed on a side of the tube, and 17.6 μL of 5 mM CFDA-SE was diluted into the drop. The tube was then quickly capped and turned upside right while being vortexed gently, yielding a final concentration of 80 μM CFDA-SE. Cells were incubated for 5 minutes at room temperature, quenched by adding 9 mL warm CCM, and washed twice with 10 mL warm CCM. When only naïve T cells were labeled with CFSE, they were combined with the CFSE-negative PBMC fraction devoid of naïve T cells after labeling to restore original cell proportions. All centrifuging steps for live cells were done for 5 minutes at 250 g, 37° C. CFSE and labeled cells were protected from light throughout the experiment. During protocol optimization, the above labeling protocol for 0.1-10×10^7 cells and CFSE concentrations in range of 0.2 μM to 320 μM was tested. Long-term cell viability and proliferation were assessed. Manufacturer's labeling protocol for CFSE concentrations 0.2 μM to 20 μM, as well as other CFSE suppliers (BIOLEGEND® #422701, San Diego, CA, USA) were also tested.
Samples were processed as previously known in the art. To stain cells for viability, cisplatin (SIGMA-ALDRICH® #P4394) was reconstituted to 100 mM in DMSO and incubated at 37° C. for 3 days to prepare a stock solution, which was then stored in aliquots at −20° C. Cell pellets were resuspended in 1 mL PBS containing 0.5 μM cisplatin, gently vortexed, incubated 5 minutes at room temperature, quenched with 3 mL CCM, pelleted, and resuspended in 1 mL CCM. […] All centrifuging steps for fixed cells were done for 5 minutes at 600×g, 4° C. Cell pellets were optionally stored at −80° C.
Mass cytometry data were normalized and debarcoded.

[1] = REP day 4, among CD45RA^Low CD25^High CFSE^+CD8^+T cells
[2] = REP day 5, among CD45RA^High CD25^Low CFSE^+CD8^+T cells
[3] = REP day 5, among CD45RA^Low CD25^High CFSE^+CD8^+T cells
[4] = REP day 7, among CD45RA^High CD25^Low CFSE^+CD8^+T cells
[5] = REP day 7, among CD45RA^Low CD25^High CFSE^+CD8^+T cells
[6] = in CD45RA High CD25 Low subset of CFSE+CD8+ T cells, REP day 3
[7] = in CD45RA High CD25 Low subset of CFSE+CD8+ T cells, REP day 4
[8] = in CD45RA High CD25 Low subset of CFSE+CD8+ T cells, REP day 5
[9] = in CD45RA High CD25 Low subset of CFSE+CD8+ T cells, REP day 7
[10] = in CD45RA Low CD25 High subset of CFSE+CD8+ T cells, REP day 3
[11] = in CD45RA Low CD25 High subset of CFSE+CD8+ T cells, REP day 4
[12] = in CD45RA Low CD25 High subset of CFSE+CD8+ T cells, REP day 5
[13] = in CD45RA Low CD25 High subset of CFSE+CD8+ T cells, REP day 7

Compound: CO[C@H]1C[C@@H]2CC[C@@H](C)[C@@](O)(O2)C(=O)C(=O)N2CCCC[C@H]2C(=O)O[C@H]([C@H](C)C[C@@H]2CC[C@@H](O)[C@H](OC)C2)CC(=O)[C@H](C)/C=C(\C)[C@@H](O)[C@@H](OC)C(=O)[C@H](C)C[C@H](C)/C=C/C=C/C=C/1C [Rapamycin, rapamycin]
- Dead cells (%) (REP day 4, among CD45RA^High CD25^Low CFSE^+CD8^+T cells): 0.39%
- Apoptotic Cells (%) [1]: 0.84%
- Dead cells (%) [1]: 0.21%
- CFSE^+ CD8^+ T cells (%)^* (REP day 4): 3.07%
- Apoptotic cells (% cPARP+ cells in CFSE+ CD8+ T cells) (REP day 5): 1.07%
- Apoptotic cells (% cPARP^+ cells in CFSE^+ CD8^+T cells) (REP day 5): 1.07%
- CFSE+ CD8+ T cells (%) (REP day 5): 5.14%
- Dead cells (1% cisplatin+ cells in CFSE+ CD8+ T cells) (REP day 5): 0.21%
- Dead cells (1% cisplatin^+ cells in CFSE^+ CD8^+ T cells) (REP day 5): 0.21%
- Total CFSE+ CD8+ T cells (REP day 5): 0.71
- Total CFSE^+ CD8^+ T cells (REP day 5): 0.71
- Total cells (×10^6) (REP day 5): 13.91 ×10^6
- Apoptotic Cell (%) [2]: 2.33%
- Dead cells (%) [2]: 0.00%
- Apoptotic Cells (%) [3]: 0.79%
- Dead cells (%) [3]: 0.24%
- CFSE^+ CD8^+ T cells (%)^* (REP day 5): 5.14%
- Apoptotic cells (% cPARP+ cells in CFSE+ CD8+ T cells) (REP day 7): 2.16%
- Apoptotic cells (% cPARP^+ cells in CFSE^+ CD8^+T cells) (REP day 7): 2.16%
- CFSE+ CD8+ T cells (%) (REP day 7): 6.49%
- Dead cells (1% cisplatin+ cells in CFSE+ CD8+ T cells) (REP day 7): 1.13%
- Dead cells (1% cisplatin^+ cells in CFSE^+ CD8^+ T cells) (REP day 7): 1.13%
- Total CFSE+ CD8+ T cells (REP day 7): 1.82
- Total CFSE^+ CD8^+ T cells (REP day 7): 1.82
- Total cells (×10^6) (REP day 7): 28.03 ×10^6
- Apoptotic Cell (%) [4]: 3.47%
- Dead cells (%) [4]: 0.69%
- Apoptotic Cells (%) [5]: 1.15%
- Dead cells (%) [5]: 0.72%
- CFSE^+ CD8^+ T cells (%)^* (REP day 7): 6.49%
- Apoptotic Cell (%) [6]: 0.53%
- Dead cells (%) [6]: 0.00%
- Apoptotic Cell (%) [7]: 0.59%
- Dead cells (%) [7]: 0.39%
- Apoptotic Cell (%) [8]: 2.33%
- Dead cells (%) [8]: 0.00%
- Apoptotic Cell (%) [9]: 3.47%
- Dead cells (%) [9]: 0.69%
- Apoptotic Cells (%) [10]: 0.31%
- Dead cells (%) [10]: 0.63%
- Apoptotic Cells (%) [11]: 0.84%
- Dead cells (%) [11]: 0.21%
- Apoptotic Cells (%) [12]: 0.79%
- Dead cells (%) [12]: 0.24%
- Apoptotic Cells (%) [13]: 1.15%
- Dead cells (%) [13]: 0.72%
